System: patients with Wilson disease (WD)
Assay: UWDRS Part III total score, functional subscale and individual items (neurological examination)
Format: in vivo, human
Details: for UWDRS Part III change from baseline, LSM Diff (TTM vs SoC) / UWDRS Part III change from baseline, Mean / UWDRS Part III change from baseline, Median / UWDRS Part III change from baseline, LSM: patients symptomatic at baseline; for UWDRS Part III change from baseline, LSM: MMRM; for UWDRS Part III (0-175) change from baseline, LSM / UWDRS Part III (0-175) change from baseline, Mean / UWDRS Part III functional subscale (0-10) change from baseline, LSM / UWDRS Part III functional subscale (0-10) change from baseline, Mean / UWDRS Part III-arising from chair (0-4) change from baseline, LSM / UWDRS Part III-arising from chair (0-4) change from baseline, Mean / UWDRS Part III-gait (0-4) change from baseline, LSM / UWDRS Part III-gait (0-4) change from baseline, Mean / UWDRS Part III-handwriting (0-4) change from baseline, LSM / UWDRS Part III-handwriting (0-4) change from baseline, Mean / UWDRS Part III-speech (0-4) change from baseline, LSM / UWDRS Part III-speech (0-4) change from baseline, Mean: Study 301 TTM long term set
Description: The UWDRS scoring system was developed specifically for the motor and movement disorders associated with chronic copper neurotoxicity in WD. Some individual items/subscales of the UWDRS Part III (arising from a chair, gait, handwriting, and speech) in addition to the UWDRS Parts I, II, and III overall, were assessed to further define the range of burdensome signs and symptoms of WD, so as to further understand the assessment of treatment effects on patients with WD. The UWDRS scores for consciousness (Part I) and abnormal neurologic examination findings (Part III) will be determined by a trained neurologist rater who is blinded to study treatment randomization. These scores were used to provide a rigorous dataset for evaluating changes from baseline.
Unified Wilson Disease Rating Scale (Parts I, II, and III): The UWDRS is a clinical rating scale designed to evaluate the neurological manifestations of WD that generally can be divided into 3 movement disorder syndromes: dystonic, ataxic, and Parkinsonian syndrome. The UWDRS comprises 3 parts: UWDRS Part I (level of consciousness, item 1), UWDRS Part II (a patient-reported review of daily activity items [disability], items 2 to 11), and UWDRS Part III (a detailed neurological examination, items 12 to 34).
The UWDRS Part I and Part III were assessed by a neurologist who is blinded to the treatment randomization, while UWDRS Part II may be reported to a non-blinded member of the study team by the patient, family member, or caregiver. The UWDRS has not been formally evaluated in adolescents. However, the components of Part I (level of consciousness), Part II (patient or caregiver-reported disability) and Part III (neurologic examination findings) were not fundamentally different between adults and adolescents. Patients aged 12 years and older were expected to be able to comply with UWDRS assessments.
Pooled results from all such participants will be integrated together into one timeline to allow analyses of changes in UWDRS, long-term copper control, and long-term safety laboratory data.
Endpoints (directly measured non-ceruloplasmin-bound copper [dNCC], UWDRS III (rater blinded) total and individual item scores, Clinical Global Impression-Improvement [CGI-I]) were evaluated at baseline (BL) and Week 48 (W48). Normalization (score decrease to 0), improvement (≥1 point decrease), stability (no change), or worsening (≥1 point increase) of total and individual UWDRS III item scores were evaluated at W48.

[1] = Week 48, Cohort 1, Total (Studies 301, 201, 205), n=127

bis-choline tetrathiomolybdate [TTM]
UWDRS-III, Change from Baseline, Median [1]: −1.00
UWDRS-III, Change from Baseline, Min [1]: −48.0,
UWDRS-III, Change from Baseline, Q1 [1]: −6.00,
UWDRS-III, Change from Baseline, Q3 [1]: 0.00
UWDRS-III, Change from Baseline, LSM Diff (TTM vs. SoC) (Week 48, Cohort 1, TTM Total vs SoC Study 301, P-value 0.1295): −1.97
UWDRS-III, Change from Baseline, LSM (Week 48, Cohort 1, TTM Total, SoC Study 301): −3.62
UWDRS Part III change from baseline, LSM Diff (TTM vs SoC) (Week 48, Cohort 1): −0.79
UWDRS Part III change from baseline, Mean (Week 48, Cohort 1): −2.86
UWDRS Part III change from baseline, Median (Week 48, Cohort 1): −2.00
UWDRS Part III change from baseline, LSM (Week 48, Cohort 1): −2.68
UWDRS Part III change from baseline, LSM Diff (TTM vs SoC) (Week 48, Cohort 2): 0.05
UWDRS Part III change from baseline, Mean (Week 48, Cohort 2): −3.10
UWDRS Part III change from baseline, Median (Week 48, Cohort 2): −3.00
UWDRS Part III change from baseline, LSM (Week 48, Cohort 2): 1.43
UWDRS Part III change from baseline, LSM Diff (TTM vs SoC) (Week 48, Overall): −0.33
UWDRS Part III change from baseline, Mean (Week 48, Overall): 2.91
UWDRS Part III change from baseline, Median (Week 48, Overall): −2.00
UWDRS Part III change from baseline, LSM (Week 48, Overall): −1.54
UWDRS Part III (0-175) change from baseline, LSM (Week 48): −2.47
UWDRS Part III (0-175) change from baseline, Mean (Week 48): −2.32
UWDRS Part III functional subscale (0-10) change from baseline, LSM (Week 48): −0.230
UWDRS Part III functional subscale (0-10) change from baseline, Mean (Week 48): −0.235
UWDRS Part III-arising from chair (0-4) change from baseline, LSM (Week 48): 0.0
UWDRS Part III-arising from chair (0-4) change from baseline, Mean (Week 48): 0.0
UWDRS Part III-gait (0-4) change from baseline, LSM (Week 48): −0.26
UWDRS Part III-gait (0-4) change from baseline, Mean (Week 48): −0.18
UWDRS Part III-handwriting (0-4) change from baseline, LSM (Week 48): −0.1
UWDRS Part III-handwriting (0-4) change from baseline, Mean (Week 48): −0.2
UWDRS Part III-speech (0-4) change from baseline, LSM (Week 48): −0.1
UWDRS Part III-speech (0-4) change from baseline, Mean (Week 48): −0.1
UWDRS Part III (0-175) change from baseline, LSM (Week 72): −3.47
UWDRS Part III (0-175) change from baseline, Mean (Week 72): −3.27
UWDRS Part III functional subscale (0-10) change from baseline, LSM (Week 72): −0.253
UWDRS Part III functional subscale (0-10) change from baseline, Mean (Week 72): −0.290
UWDRS Part III-arising from chair (0-4) change from baseline, LSM (Week 72): −0.1
UWDRS Part III-arising from chair (0-4) change from baseline, Mean (Week 72): −0.1
UWDRS Part III-gait (0-4) change from baseline, LSM (Week 72): −0.15
UWDRS Part III-gait (0-4) change from baseline, Mean (Week 72): −0.12
UWDRS Part III-handwriting (0-4) change from baseline, LSM (Week 72): −0.2
UWDRS Part III-handwriting (0-4) change from baseline, Mean (Week 72): −0.2
UWDRS Part III-speech (0-4) change from baseline, LSM (Week 72): −0.1
UWDRS Part III-speech (0-4) change from baseline, Mean (Week 72): −0.1
UWDRS Part III (0-175) change from baseline, LSM (Week 96): −4.77
UWDRS Part III (0-175) change from baseline, Mean (Week 96): −4.09
UWDRS Part III functional subscale (0-10) change from baseline, LSM (Week 96): −0.386
UWDRS Part III functional subscale (0-10) change from baseline, Mean (Week 96): −0.503
UWDRS Part III-arising from chair (0-4) change from baseline, LSM (Week 96): −0.1
UWDRS Part III-arising from chair (0-4) change from baseline, Mean (Week 96): −0.2
UWDRS Part III-gait (0-4) change from baseline, LSM (Week 96): −0.12
UWDRS Part III-gait (0-4) change from baseline, Mean (Week 96): −0.11
UWDRS Part III-handwriting (0-4) change from baseline, LSM (Week 96): −0.3
UWDRS Part III-handwriting (0-4) change from baseline, Mean (Week 96): −0.4
UWDRS Part III-speech (0-4) change from baseline, LSM (Week 96): −0.2
UWDRS Part III-speech (0-4) change from baseline, Mean (Week 96): −0.2
UWDRS Part III (0-175) change from baseline, LSM (Week 120): −5.27
UWDRS Part III (0-175) change from baseline, Mean (Week 120): −4.08
UWDRS Part III functional subscale (0-10) change from baseline, LSM (Week 120): −0.392
UWDRS Part III functional subscale (0-10) change from baseline, Mean (Week 120): −0.410
UWDRS Part III-arising from chair (0-4) change from baseline, LSM (Week 120): −0.1
UWDRS Part III-arising from chair (0-4) change from baseline, Mean (Week 120): −0.2
UWDRS Part III-gait (0-4) change from baseline, LSM (Week 120): 0.04
UWDRS Part III-gait (0-4) change from baseline, Mean (Week 120): 0.26
UWDRS Part III-handwriting (0-4) change from baseline, LSM (Week 120): −0.3
UWDRS Part III-handwriting (0-4) change from baseline, Mean (Week 120): −0.5
UWDRS Part III-speech (0-4) change from baseline, LSM (Week 120): −0.2
UWDRS Part III-speech (0-4) change from baseline, Mean (Week 120): −0.1
UWDRS Part III (0-175) change from baseline, LSM (Week 144): −6.38
UWDRS Part III (0-175) change from baseline, Mean (Week 144): −5.99
UWDRS Part III functional subscale (0-10) change from baseline, LSM (Week 144): −0.489
UWDRS Part III functional subscale (0-10) change from baseline, Mean (Week 144): −0.573
UWDRS Part III-arising from chair (0-4) change from baseline, LSM (Week 144): −0.2
UWDRS Part III-arising from chair (0-4) change from baseline, Mean (Week 144): −0.3
UWDRS Part III-gait (0-4) change from baseline, LSM (Week 144): −0.25
UWDRS Part III-gait (0-4) change from baseline, Mean (Week 144): 0.00
UWDRS Part III-handwriting (0-4) change from baseline, LSM (Week 144): −0.3

From patent publication US20260216238A1, “TETRATHIOMOLYBDIC ACID FOR USE IN TREATING COPPER METABOLISM-ASSOCIATED DISEASES OR DISORDERS (WILSON DISEASE)” (Alexion Pharmaceuticals, Inc., priority 2023, published 2026)
